The text below walks through data of ChEMBL document CHEMBL5126609, “Design, Synthesis, and Pharmacological Evaluation of Benzimidazolo-thiazoles as Potent CXCR3 Antagonists with Therapeutic Potential in Autoimmune Diseases: Discovery of ACT-672125” (J Med Chem, 2022).

In brackets after ≈: the same amount, converted by molar mass.

Data set [1] can be described thus: Lipophilicity, log D of the compound at pH 7.4. The following applies: buffer.
The nature of data set [2]: in vitro. As to conditions: human, microsomes.
Data set [3] can be described thus: in vitro. The following applies: mouse, microsomes.
Data set [4] can be described thus: in vivo. The following applies: Balb/c, mouse, po, 10 mg/kg.
Data set [5] addresses hERG (KCNH2) (Homo sapiens, UniProt Q12809). The data set is described as follows: Inhibition of hERG expressed in CHO cells at 3 uM at -80 mV holding potential assessed as current block incubated for 3 mins by Qpatch clamp method relative to control. A general note: hERG is a cardiac potassium channel; its block is linked to QT prolongation.
A short description of data set [6]: Solubility of the compound in FeSSIF. As to conditions: simulated gi fluid.
Data set [7] addresses T1, C-X-C chemokine receptor type 3 (Homo sapiens, UniProt P49682).
T1 sequence (P49682 whole entry): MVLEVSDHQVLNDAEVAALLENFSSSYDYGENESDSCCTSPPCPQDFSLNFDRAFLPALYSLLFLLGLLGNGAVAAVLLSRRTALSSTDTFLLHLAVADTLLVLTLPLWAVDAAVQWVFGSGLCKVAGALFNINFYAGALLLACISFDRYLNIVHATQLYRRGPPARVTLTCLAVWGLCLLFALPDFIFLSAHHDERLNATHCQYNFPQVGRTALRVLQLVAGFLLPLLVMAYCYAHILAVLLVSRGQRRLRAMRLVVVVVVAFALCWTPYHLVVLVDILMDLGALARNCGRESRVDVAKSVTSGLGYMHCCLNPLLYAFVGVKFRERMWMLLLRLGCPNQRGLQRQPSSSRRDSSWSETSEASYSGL
The data set is described as follows: Antagonist activity at human recombinant CXCR3 expressed in CHO-K1 cells measured after 10 mins in presence of CXCL10 by FLIPR analysis.

The target in data set [8] is T1, C-X-C chemokine receptor type 3. The data set is described as follows: Antagonist activity at human recombinant CXCR3 in human venous blood assessed as receptor internalization measured for 30 mins in presence of CXCL10 by flow cytometric analysis. On the technique in general: Flow cytometry measures light scatter and fluorescence of single cells or particles in a stream.

Data set [9] in a line: in vivo. As to conditions: Balb/c, mouse, po, 10 mg/kg. This is another data set of the same source.
Data set [10] in a line: in vivo. The following applies: Balb/c, mouse, po, 10 mg/kg. The source holds these as a separate data set.
Data set [11] can be described thus: Unbound fraction in mouse plasma by equilibrium based LC-MS/MS analysis.

Sequence of hERG (KCNH2) (Q12809 whole entry): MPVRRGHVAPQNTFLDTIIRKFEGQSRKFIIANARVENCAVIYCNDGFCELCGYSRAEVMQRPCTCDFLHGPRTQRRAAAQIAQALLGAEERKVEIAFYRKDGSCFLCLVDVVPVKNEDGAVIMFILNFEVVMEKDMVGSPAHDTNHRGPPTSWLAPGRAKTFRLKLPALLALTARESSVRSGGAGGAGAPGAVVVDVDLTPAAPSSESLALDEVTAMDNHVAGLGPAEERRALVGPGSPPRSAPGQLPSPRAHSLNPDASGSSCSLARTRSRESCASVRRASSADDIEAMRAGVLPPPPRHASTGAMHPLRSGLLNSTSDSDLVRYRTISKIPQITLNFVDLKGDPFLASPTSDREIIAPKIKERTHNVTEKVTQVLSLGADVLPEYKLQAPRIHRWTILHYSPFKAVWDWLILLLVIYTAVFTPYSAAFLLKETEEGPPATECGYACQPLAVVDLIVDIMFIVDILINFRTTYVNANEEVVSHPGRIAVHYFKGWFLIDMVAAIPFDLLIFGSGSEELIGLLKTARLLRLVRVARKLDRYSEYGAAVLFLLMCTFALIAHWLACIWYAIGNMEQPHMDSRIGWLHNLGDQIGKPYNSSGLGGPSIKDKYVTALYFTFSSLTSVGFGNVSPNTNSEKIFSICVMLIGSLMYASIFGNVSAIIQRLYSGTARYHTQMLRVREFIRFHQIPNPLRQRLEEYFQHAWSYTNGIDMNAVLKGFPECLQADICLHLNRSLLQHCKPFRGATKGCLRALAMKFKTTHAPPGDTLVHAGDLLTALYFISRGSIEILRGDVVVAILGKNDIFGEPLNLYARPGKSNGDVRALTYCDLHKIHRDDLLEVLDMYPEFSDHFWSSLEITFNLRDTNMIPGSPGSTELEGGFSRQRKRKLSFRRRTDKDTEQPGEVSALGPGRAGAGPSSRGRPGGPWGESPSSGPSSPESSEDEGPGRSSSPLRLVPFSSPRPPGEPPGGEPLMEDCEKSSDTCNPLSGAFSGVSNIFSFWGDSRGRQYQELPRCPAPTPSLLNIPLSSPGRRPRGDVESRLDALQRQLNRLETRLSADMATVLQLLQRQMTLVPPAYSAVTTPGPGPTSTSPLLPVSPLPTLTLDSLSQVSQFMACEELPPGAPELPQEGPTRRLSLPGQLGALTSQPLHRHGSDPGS

Usually logD stands for lipophilicity at a set pH, counting ionised and neutral species. What is called microsomal CLint is the rate of metabolic loss divided by the concentration. Broadly, the Cmax is the highest concentration seen after dosing. What is called inhibition is the drop in the measured response relative to a control, in per cent. By solubility is commonly meant how much of the substance goes into solution per volume. Read a high solubility as much dissolved substance. In general, IC50 refers to the concentration that inhibits the measured activity by half. Usually Tmax stands for the time from dosing to the highest level. The AUC is concentration integrated over time. Low readings indicate less exposure, high ones more exposure. With `Cc1nc(C)n(CC(=O)N2CCN(c3sc(C(F)(F)F)nc3-c3nc4ccc(N5CCOCC5)cc4[nH]3)C[C@H]2C)n1`, in data set [1], the logD turned out to be 2. Moreover, the microsomal CLint at 0.25 h, 1 µM in data set [2] is 19 µL/min/mg; in data set [3], 18 µL/min/mg. In data set [4], this compound yielded a Cmax of 4320 ng/mL. In data set [5], the inhibition at 0.05 h, 3 µM worked out at 4%. For the same compound, in data set [6], the concentration in solution (solubility) was 963 µg/mL (≈ 1630 µM). The IC50 came to 5.7 nM in [7] and 368 nM in data set [8]. The Tmax in data set [9] amounted to 15 min. The compound also showed an AUC in [10] of 4110 ng·h/mL.
Turning to `C[C@@H]1CN(c2sc(C(F)(F)F)nc2-c2nc3ccccc3[nH]2)CCN1C(=O)Cc1cccc2cccnc12`, the inhibition at 0.05 h, 3 µM in data set [5] turned out to be 78%. Further, the IC50 in data set [7] was found to be 23 nM; in [8], 502 nM.
Take `COC1CCN(CC(=O)N2CCN(c3sc(C(F)(F)F)nc3-c3nc4ccccc4[nH]3)C[C@H]2C)C1` (some centres undefined): the inhibition at 0.05 h, 3 µM in data set [5] was 85%.
In the case of `Cc1nnc(CC(=O)N2CCN(c3sc(C(F)(F)F)nc3-c3nc4ccccc4[nH]3)C[C@H]2C)o1`, the inhibition at 0.05 h, 3 µM in data set [5] is 36%. The IC50 in data set [7] is 31 nM; in data set [8] it was 2470 nM.
For `Cc1nc(C)n(CC(=O)N2CCN(c3sc(C(F)(F)F)nc3-c3nc4ccc(-n5cncn5)cc4[nH]3)C[C@H]2C)n1` the same measures were 3%, 5.8 nM and 1140 nM.
`Cc1nc(C)n(CC(=O)N2CCN(c3sc(C(F)(F)F)nc3-c3nc4cccc(C)c4[nH]3)C[C@H]2C)n1`: the inhibition at 0.05 h, 3 µM in data set [5] came to 52%.
Turning to `Cc1nc(C)n(CC(=O)N2CCN(c3sc(C(F)(F)F)nc3-c3nc4ccc(C5CCN(C)CC5)cc4[nH]3)C[C@H]2C)n1`, the logD in data set [1] worked out at 3.4. The microsomal CLint at 0.25 h, 1 µM in data set [2] was found to be 27 µL/min/mg. The compound further gave a peak concentration (Cmax) in data set [4] of 30.5 ng/mL. In addition, the inhibition at 0.05 h, 3 µM in data set [5] was -5%. Moreover, the solubility in [6] was > 1020 µg/mL. For the same compound, the Tmax in data set [9] was 180 min. The same compound registered an area under the curve (AUC) in data set [10] of 54.6 ng·h/mL.
With `C[C@@H]1CN(c2sc(C(F)(F)F)nc2-c2nc3ccccc3n2C)CCN1C(=O)Cn1cccn1`, the inhibition at 0.05 h, 3 µM in data set [5] was found to be 46%. The IC50 in data set [7] is 110 nM; in data set [8] it was 3560 nM.
On to `Cc1nc(C)n(CC(=O)N2CCN(c3sc(C(F)(F)F)nc3-c3nc4ccc(OC5CNC5)cc4[nH]3)C[C@H]2C)n1`, for which the inhibition at 0.05 h, 3 µM in data set [5] worked out at 0%. Besides, the IC50 in [7] was 3.8 nM; in [8] it was 580 nM.
Turning to `Cc1nc(C)n(CC(=O)N2CCN(c3sc(C(F)(F)F)nc3-c3nc4ccc(O)c(F)c4[nH]3)C[C@H]2C)n1`, in data set [5], the inhibition at 0.05 h, 3 µM came out at 15%.
Same read-out and setting: next, `C[C@@H]1CN(c2sc(C(F)(F)F)nc2-c2nc3ccccc3[nH]2)CCN1C(=O)CN1C(=O)OC[C@@H]1c1ccccc1`: 83%.
For `Cc1ccc(CC(=O)N2CCN(c3sc(C(F)(F)F)nc3-c3nc4ccccc4[nH]3)C[C@H]2C)cn1`, the inhibition at 0.05 h, 3 µM in data set [5] worked out at 73%. In addition, the IC50 in data set [7] was 6.1 nM; in [8] it was 805 nM.
The like results for `C[C@@H]1CN(c2sc(C(F)(F)F)nc2-c2nc3ccccc3[nH]2)CCN1C(=O)Cn1cc(Cl)cn1` were, in that order, 70%, 1.7 nM and 251 nM.
For `C[C@@H]1CN(c2sc(C(F)(F)F)nc2-c2nc3ccc(N4CCN(C)CC4)cc3[nH]2)CCN1C(=O)Cn1cccn1` the same measures were 0%, 1.6 nM and 122 nM.
As for `Cc1nc(C)n(CC(=O)N2CCN(c3sc(C(F)(F)F)nc3-c3nc4ccc(OC5COC5)cc4[nH]3)C[C@H]2C)n1`, in data set [5], the inhibition at 0.05 h, 3 µM is 0%.
Still for that read-out and setting: next, `Cc1nc(C)n(CC(=O)N2CCN(c3sc(C(F)(F)F)nc3-c3nc4ccc(S(C)(=O)=O)cc4[nH]3)C[C@H]2C)n1`: 8%; `C[C@@H]1CN(c2sc(C(F)(F)F)nc2-c2nc3ccccc3[nH]2)CCN1C(=O)CN1CCC(F)(F)CC1`: 84%; `Cc1nc(C)n(CC(=O)N2CCN(c3sc(C(F)(F)F)nc3-c3nc4ccc(C(C)(C)O)c(F)c4[nH]3)C[C@H]2C)n1`: 18%.
For `Cc1nc(C)n(CC(=O)N2CCN(c3sc(C(F)(F)F)nc3-c3nc4ccc(C5CCNCC5)cc4[nH]3)C[C@H]2C)n1`, the inhibition at 0.05 h, 3 µM in data set [5] was 5%. Moreover, the concentration for half-maximal inhibition (IC50) is 2.2 nM in data set [7] and 307 nM in data set [8].
Consider `Cc1nc(C)n(CC(=O)N2CCN(c3sc(C(F)(F)F)nc3-c3nc4cc(N5CCOCC5)cc(F)c4[nH]3)C[C@H]2C)n1`, for which the inhibition at 0.05 h, 3 µM in data set [5] was 6%.
For `C[C@@H]1CN(c2sc(C(F)(F)F)nc2-c2nc3ccccc3[nH]2)CCN1C(=O)Cn1c(=O)[nH]c2cccnc21`, the inhibition at 0.05 h, 3 µM in data set [5] was 53%. For the same compound, the IC50 in data set [7] came out at 2.6 nM; in [8], 143 nM.
Take `C[C@@H]1CN(c2sc(C(F)(F)F)nc2-c2nc3ccccc3[nH]2)CCN1C(=O)Cn1ccc(C(=O)O)n1`: the inhibition at 0.05 h, 3 µM in [5] was -2%.
Compound `C[C@@H]1CN(c2sc(C(F)(F)F)nc2-c2nc3ccc(CO)cc3[nH]2)CCN1C(=O)Cn1cnc2cccnc21` returned a microsomal CLint at 0.25 h, 1 µM in data set [2] of 131 µL/min/mg. Further, the inhibition at 0.05 h, 3 µM in data set [5] was determined as 12%. In addition, the IC50 in data set [7] came out at 4.6 nM.
As to `Cc1nc(C)n(CC(=O)N2CCN(c3sc(C(F)(F)F)nc3-c3nc4c(C(F)(F)F)cccc4[nH]3)C[C@H]2C)n1`, in [5], the inhibition at 0.05 h, 3 µM was found to be 52%. The IC50 was determined as 6 nM in data set [7] and 747 nM in [8].
As to `Cc1nc(C)n(CC(=O)N2CCN(c3sc(C(F)(F)F)nc3-c3nc4ccc(N5CCOCC5)c(F)c4[nH]3)C[C@H]2C)n1`, the inhibition at 0.05 h, 3 µM in [5] was determined as 25%.
Consider `COCCn1c(-c2nc(C(F)(F)F)sc2N2CCN(C(=O)Cn3cccn3)[C@H](C)C2)nc2ccccc21`, for which the inhibition at 0.05 h, 3 µM in data set [5] stood at 2%. Besides, the IC50 was 150 nM in [7] and 6890 nM in data set [8].
The term fraction unbound denotes the share of the substance not bound to proteins or other matrix. High values mean much free substance, low ones little free substance. For the compound `C[C@@H]1CN(c2sc(C(F)(F)F)nc2-c2nc3cc(OCCO)ccc3[nH]2)CCN1C(=O)Cn1cnc2cccnc21`, in data set [11], the fraction unbound was determined as 0.03. In data set [1], the logD came to 2.4. Moreover, the microsomal CLint at 0.25 h, 1 µM in [2] was found to be 43 µL/min/mg; in data set [3], 31 µL/min/mg. Further, the Cmax in data set [4] came to 1760 ng/mL. In addition, in data set [5], the inhibition at 0.05 h, 3 µM was 25%. Moreover, the solubility in data set [6] was 549 µg/mL (≈ 936 µM). Also, the figures for the IC50 in data set [7] and in [8] were 2.1 nM and 99.1 nM, respectively. For the same compound, in data set [9], the Tmax is 15 min. The compound also came in with an AUC in data set [10] of 519 ng·h/mL.
As to `C[C@@H]1CN(c2sc(C(F)(F)F)nc2-c2nc3ccccc3[nH]2)CCN1C(=O)Cn1cc(C2CCN(C)CC2)cn1`, the inhibition at 0.05 h, 3 µM in [5] was 74%. Besides, the IC50 in data set [7] was determined as 15 nM; in data set [8] it was 1690 nM.
In [1], `Cc1nc(C)n(CC(=O)N2CCN(c3sc(C(F)(F)F)nc3-c3nc4ccc(C5CCOCC5)cc4[nH]3)C[C@H]2C)n1` gave a logD of 3.7. For the same compound, the microsomal CLint at 0.25 h, 1 µM in [2] was determined as 18 µL/min/mg; in data set [3] it was 46 µL/min/mg. In addition, the highest level in data set [4] (Cmax) was 1980 ng/mL. Further, the inhibition at 0.05 h, 3 µM in data set [5] was found to be 18%. Besides, the solubility in data set [6] was > 1000 µg/mL. For the same compound, the IC50 in data set [7] is 3.3 nM; in [8], 123 nM. Further, in [9], the Tmax came to 18 min. In addition, the AUC in data set [10] was 545 ng·h/mL.
As to `C[C@@H]1CN(c2sc(C(F)(F)F)nc2-c2nc3cc(Cl)ccc3[nH]2)CCN1C(=O)Cn1cnc2cccnc21`, the inhibition at 0.05 h, 3 µM in [5] came out at 83%. Besides, the IC50 in [7] turned out to be 2.8 nM; in [8] it was 38.5 nM.
